Here are results for three substances from publication PMC5538625, “Perception of root‐active CLE peptides requires CORYNE function in the phloem vasculature” (EMBO Reports, 2017).

Where no end group is shown, it is not given here.

Test [1] concerns BAM3. Conditions: ref Shinohara et al., 2012; cited from earlier work. The source says:
page 6: EMBO reports - Peer Review Process File - EMBO-2016-43535 of both. […] Or alternatively to measure mRNA level by qRT-PCR. This will at least resolve if it's transcriptional regulation or not. 3. One way to bolster their statement about CRN's BAM3 regulation would be to do a simple complementation. If authors' already generated CRN::CRN in crn mutant background, we highly recommend that the authors use this line as well. BAM3-BAM3-CITRINE construct are introduced ...

For test [2], the system named is bam3 mutant seedlings (primary root). Conditions: compared with WT; ref Depuydt et al., 2013; cited from earlier work. An excerpt: “6. We'd also like the authors to answer or discuss following aspects in the discussion part.” “6-1. How do you explain the insensitivity of crn to all CLE peptides? Does it control expression of CLV as well?” At this point we can only speculate on this. As we highlight in the discussion, maybe the expression of other, yet to be identified CLE receptors in the root also depends on CR ...

Test [3] concerns the target T1, PXY extracellular domain (30–647) (Arabidopsis thaliana, UniProt Q9FII5).
T1 construct: PXY/TDR (30–647); azurocidin signal peptide (N); made in house; host or cells: Spodoptera frugiperda Sf9 insect cells (baculovirus, secreted)
T1 sequence (Q9FII5 30-647): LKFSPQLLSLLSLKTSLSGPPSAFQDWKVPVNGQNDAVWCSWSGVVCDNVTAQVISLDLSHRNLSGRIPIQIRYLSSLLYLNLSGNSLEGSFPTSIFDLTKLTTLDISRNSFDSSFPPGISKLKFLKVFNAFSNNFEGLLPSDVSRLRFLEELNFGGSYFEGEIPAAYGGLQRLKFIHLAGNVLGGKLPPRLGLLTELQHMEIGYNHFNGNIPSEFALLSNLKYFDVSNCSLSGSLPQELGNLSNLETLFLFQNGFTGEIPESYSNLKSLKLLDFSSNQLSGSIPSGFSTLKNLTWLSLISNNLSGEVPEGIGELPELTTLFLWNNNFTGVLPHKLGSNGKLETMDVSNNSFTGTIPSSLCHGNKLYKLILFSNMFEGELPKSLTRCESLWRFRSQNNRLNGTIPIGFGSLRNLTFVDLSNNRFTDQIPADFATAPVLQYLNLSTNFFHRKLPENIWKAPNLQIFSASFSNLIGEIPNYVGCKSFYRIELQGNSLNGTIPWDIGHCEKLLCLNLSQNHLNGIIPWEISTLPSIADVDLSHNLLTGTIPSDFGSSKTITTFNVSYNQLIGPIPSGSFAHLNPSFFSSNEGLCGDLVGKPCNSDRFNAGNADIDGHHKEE
Kind of test: ITC of purified PXY extracellular domain vs. CLE41/44. The note with it: binding affinity (range), isolated PXY ectodomain; range joins own value (Fig EV1B) and ref 25.

For test [4], the system named is crn seedlings expressing CRN-CITRINE under control of the BAM3 promoter. Kind of test: Root growth, BAM3::CRN-CITRINE in crn (protophloem-specific CRN). In kind it is in vivo, Arabidopsis thaliana. The note with it: 50 nM peptide, 7-day-old seedlings. The source says: Figure 3 Protophloem‐specific CRN action in the root meristem • A Expression pattern of BAM3, CLV2, and CRN‐CITRINE fusion proteins (green fluorescence) under control of their native promoters (blue fluorescence: calcofluor white cell wall staining) (confocal microscopy). Asterisks mark developing protophloem sieve element strands. • B, C Expression pattern of CRN‐CITRINE fusion protein under control of the BAM3 promoter in Col‐0 (B) or crn (C) background. Arrowhead in (C) highlights plasma membrane‐localized CRN. • D Representative 7‐day‐old crn seedlings expressing CRN‐CITRINE fusion protein under control of the BAM3 promoter grown on mock or CLE45. • E Primary root length of 7‐day‐old seedlings of indicated genotypes, grown on mock or 50 nM of selected CLE peptides. Differences as compared to ^a: Col‐0 or ^b: crn are not statistically significant unless indicated (Student's t‐test); *P < 0.05; **P < 0.01; ***P < 0.001; mean ± s.e.m. • F Expression of nuclear localized, fluorescent VENUS protein under control of the CVP2 promoter (which specifically marks developing protophloem sieve elements), 24 h after transfer from standard media to 50 nM of selected CLE peptides. Arrowheads indicate the cells closest to the tip in which CVP2 expression was still detectable. […]

The test system of test [5] is Arabidopsis Col-0 seedlings (primary root). Kind of test: Root growth assay, wild type (Col-0). The format is in vivo, Arabidopsis thaliana. Conditions: 50 nM peptide, 9-day-old seedlings, primary root length, n ≥ 12. The procedure: Plant tissue culture, plant transformation, and common molecular biology procedures such as genomic DNA isolation, genotyping, sequencing, and peptide or inhibitor treatments were performed according to standard procedures as previously described 9, 19, 44, 65.
All mutant and transgenic lines were in the Arabidopsis Columbia‐0 (Col‐0) background. The following previously described mutant alleles were used throughout: brx‐2, bam3‐2, brx‐2 bam3, clv2‐1, serk1‐1 and serk1‐3, serk2‐1, serk3‐1, serk4‐1, serk5‐1 9, 47, 59, 66, 67, 68. The crn loss‐of‐function mutant allele (crn‐10) carries a single nucleotide insertion in front of the 7th codon, which leads to a frameshift and three subsequent premature stop codons after amino acid 10 52.

“CLE9: CLE9 (earlier reports) (RLVPSGPNPLHN; ends and bridges not checked; UniProt Q9FZE4 109-120, looked up)”: the “binding to BAM3, in words” value in test [1] is on record as “BAM3 has been shown to have a binding activity to CLE9”. For the same substance, the “root response of bam3 mutants” value in test [2] is listed as “not suppressed in bam3 mutant plants”.

As to HEVPSGPNPISN [CLE41/44], in test [3], the dissociation constant Kd (as a rule, the free concentration of one partner at which half of the binding sites on the other are occupied at equilibrium, for simple one-to-one binding) fell in the range of 0.01 to 0.03 µM.

As to RKVPRGPDPIHN [CLE26, CLE26: …], in test [4], the “sensitivity after protophloem-specific CRN expression in crn” value is listed as “restored sensitivity”. In addition, the “impact on root growth” value in test [5] was “significant, reproducible impact on root growth”.
